{"source": "patent US9308161B2", "about": "“Substance for restoring normal co-expression and interaction between the LOX and NRAGE proteins” (BASF Beauty Care Solutions France S.A.S., priority 2005, dated 2016)", "key": {"[1]": {"system": "transglutaminase", "assay": "Transglutaminase immunolabelling intensity in reconstructed skin model (MIMESKIN)", "type": "cell-based, human", "conditions": "positive control, calcium chloride 1.5 mM", "method": "The reconstructed skin model is in particular achieved according to the following protocol: • 0.5 to 1.10^6 fibroblasts of normal human skin are sown on a matrix substrate based on collagen/glycosaminoglycan/chitosan, and then grown in a nutritive medium, for example DMEM-Glutamax supplemented with 10% of calf serum; ascorbic acid, preferably at a final concentration of 1 mM; EGF (epidermal grow factor), preferably at a final concentration of 10 ng/ml; Normocin, preferably at a final concentration of 100 μg/ml, for 21 days. • 0.5 to 1.10^6 […], and then grown in a nutritive medium, for example DMEM-Glutamax/Ham F-12 (ratio 3:1 v/v) supplemented with calf serum, ascorbic acid, preferably at a final concentration of 1 mM; EGF (epidermal growth factor), preferably at a final concentration of 10 ng/ml; hydrocortisone, preferably at a final concentration of 0.4 μg/ml; umuline, preferably at a final concentration of 0.12 IU/ml; isuprel, preferably at a final concentration of […]; triiodothyronine, preferably at a final concentration of 2.10^−9M; adenine, preferably at a final concentration of 24.3 μg/ml; Normocin, preferably at a final concentration of 100 μg/ml. The culture was continued for 7 days in an immersed condition. The cultures were then placed at the air-liquid interface for 14 additional days in the same medium as the immersion culture, except for the calf serum, hydrocortisone, isuprel, triidothyronine and umuline.\nThe active ingredient (ephedra extract) is advantageously diluted in the culture media described above at 0.5 and 1% and used 3 days after the respective sowing of fibroblasts and keratinocytes (i.e. days 3 to 21 and days 24 to 42). […]\nViewing of immunolabellings is performed under photon microscopy (Axioskop2plus—Zeiss, Germany) and quantification of the transglutaminase immunolabellings was performed by image analysis (Lucia—Nilon, France) and the effects of the treatment with the active ingredient are evaluated (Holm-Sidak statistical test, p<0.01)."}, "[2]": {"system": "LOX", "assay": "LOX messenger RNA by quantitative RT-PCR, keratinocytes in culture in the absence of calcium differentiation (Example 15)", "type": "cell-based, human", "conditions": "mRNA relative to actine vs untreated control (NT); 24 hours; no calcium differentiation; 0.1% to 1% (v/v)", "method": "The actives were tested on normal human keratinocytes from young subjects, obtained by enzymatic extraction of human biopsies collected after surgical resection and cultivated as monolayers in a K-SFM (keratinocyte serum free medium with supplements) defined medium, supplemented with antibiotics at 37° C. under 5% CO2. The cells are sown at the second passage in 24-well plates, for example with an amount of 30 000 cells per cm^2 and grown until about 95% confluence. […] Active ingredients of different origins (vegetable, biotechnological origin or synthesized molecules for example) are tested from 0.1% volume/volume (v/v) to 1% (v/v). An active ingredient from vegetable origin is tested for example at 1% (v/v) and a synthesized molecule is tested for example at 0.1% (v/v) […] The obtained extracts are then filtered or distilled in order to recover the soluble fraction which is then filtered at 0.45 μm preferably. The biotechnological hydrolysates are obtained by fermentation of vegetable extracts in the presence of microorganisms, advantageously from the Lactobacillus or Saccharomyces family. These hydrolysates are then preferably filtered to 0.45 μm. The incubation is advantageously performed for 24 hours at 37° C. under 5% CO2, in a K-SFM medium without growth factors but with antibiotics. The negative controls are either the culture medium by itself, or the culture medium containing from 0.1% (v/v) to 1% (v/v) of the solvent used during the method for extracting the tested extracts. […] The untreated cells (NT control) are dry frozen at -80° C. after rinsing with pH 7.4 phosphate buffer. […] Modification of the expression of the genes is achieved by real time RT-PCR which measures the expression of each gene relative to actine (housekeeping gene) and expressed as a % of the untreated negative control (NT). […] According to the experimentation, the measuring threshold of C(T) (=cycle threshold) was set for T between 0.05 and 0.01 and then an arbitrary measuring unit is calculated for each gene according to the formula: […] […]"}, "[3]": {"system": "differentiated human keratinocytes", "assay": "Apoptosis by TUNEL in monolayer cultures of differentiated human keratinocytes, LOX activity inhibited", "type": "cell-based", "method": "The study was carried out on monolayer cultures of differentiated human keratinocytes at confluence. The effect of LOX on apoptosis was identified by inhibiting its activity through the addition of β-APN (0.02% w/v—(weight/volume)) under normal or proapoptotic conditions (thermal shock caused by exposure to a temperature of 45° C.±0.5° C. for 1 h 30 min).\nCell death by apoptosis is detected and quantified using the TUNEL (terminal deoxynucleotidyl transferase mediated dUTP nick end labeling) technique, which is based on labeling of the […] accompanying apoptosis.\nThe first step consists in labeling the DNA breaks with TdT (terminal deoxynucleotidyl transferase), which catalyzes the polymerization of the fluorescein-labeled nucleotides at the free 3′-OH end of the DNA. The second step consists in detecting the incorporated fluorescein with an alkaline phosphatase-conjugated anti-fluorescein antibody after incubation with the substrate for the latter.\nThe experiment is validated by means of a positive control obtained by fragmentation of the DNA with a DNase solution, and a negative control obtained by depositing phosphate buffer."}}, "note": "Where “and” joins values, the source holds several entries; their conditions need not be identical. Identical values can stand only once."}
{"smiles": "[Ca+2].[Cl-].[Cl-]", "note": "[Calcium, calcium chloride]", "values": [{"measurement": "INTENSITY Average", "setting": "[1]", "result": 0.067}, {"measurement": "Variation vs NT", "setting": "[1]", "result": 59, "unit": "%"}, {"measurement": "INTENSITY of transglutaminase labelling (single values)", "setting": "[1]; day 28-42", "result": "0.061 and 0.076 and 0.064"}]}
{"smiles": "CC/C=C/CC(=O)OCC", "note": "[Ethyl trans 3-hexanoate]", "values": [{"measurement": "LOX modulation vs NT", "setting": "[2]", "result": 2.3}]}
{"smiles": "CCC(C)C(=O)OC", "note": "(stereo not drawn) [Methyl 2 methyl butyrate]", "values": [{"measurement": "LOX modulation vs NT", "setting": "[2]", "result": 2.5}]}
{"smiles": "OC[C@@H](O)[C@H](O)[C@@H](O)CO", "note": "[Xylitol]", "values": [{"measurement": "LOX modulation vs NT", "setting": "[2]", "result": 2.8}]}
{"smiles": "N#CCCN", "note": "[β-APN, β-aminopropionitrile]", "values": [{"measurement": "Without thermal shock (% of labeled cells)", "setting": "[3]; TUNEL, β-APN 0.02% w/v, normal conditions", "result": "56% of labeled cells"}, {"measurement": "With thermal shock (% of labeled cells)", "setting": "[3]; TUNEL, β-APN 0.02% w/v, thermal shock 45° C.±0.5° C. for 1 h 30 min", "result": "81% of labeled cells"}, {"measurement": "effect on apoptosis", "setting": "[3]; inhibition of the enzymatic activity of LOX by β-APN", "result": "substantial increase in apoptosis"}]}
